Measurements from patent US20170094972A1, “Compounds and Compositions Having Knock-Down Activity Against Insect Pests” (priority 2015, published 2017).

How the values were obtained:
Assay type in all cases: in vivo
[1] = tested on: Anopheles stephensi; assay: 6 well plate test, knockdown after 1 hour and mortality after 24 and 48 hours; set-up: KD: unit not given here; details: for 24 hr mort / 48 hr mort / KD: Table B4; for KD: after 1 hour
Description: The individual wells of six (6) well tissue culture plates were treated with […] of an ethanol solution containing a test compound at a defined concentration. Once the deposits were dry, ten non-blood fed adult female Anopheles stephensi (between two to five day old) were added to each well, and sustained with a 10% sucrose solution in a cotton wool plug. Assessment of the knockdown after 1 hour (Tables B1-B10), and mortality after 24 and 48 hours (Tables B1-B4) was carried out.
(§1) In case of multiple tests, the mean value is reported.

[2] = tested on: female mosquitoes; assay: Tunnel study based on WHOPES tunnel tests with Hemotek membrane feeding device
Description: Based on the “WHOPES tunnel tests” (described at http://apps.who.int/iris/bitstream/10665/80270/1/9789241505277_eng.pdf), except that live guniea pig baits were replaced with a Hemotek membrane feeding device, filled with blood and kept constant at 37° C. to mimic a human host. All tests were done under standardised laboratory controlled conditions (27° C.+2° C. under subdued light). The tunnel apparatus was a 60×30×30 cm glass case open at each end and the floor was lined with wet blue roll in order to maintain humidity. A 30×30×30 cm cage, covered in untreated netting, was placed at the release end. The test nets were cut to 25×25 cm squares and fitted into cardboard frames that allow a 20×20 cm area to be exposed. Nine holes, 1 cm in diameter, were made in the netting in the pattern specified in the WHOPES test. The frames were then fitted into the tunnel one third of the way down its length. A Hemotek device, filled with blood and kept constant at 37° C. to mimic a human host, was placed in the smaller area of the glass tunnel behind the test netting, and the end of the tunnel closed with a netting screen. A human sat at the Hemotek end of the tunnels for the duration of the test. At the start of the test (13.30-14.00), 100 female mosquitoes (non-blood fed, aged 5-8 days) were introduced into the cage. Mosquitoes are free to fly in the tunnel but have to make contact with the piece of netting and locate the holes in it before passing through to reach the bait. After 7 hours (20.30-21.00) the mosquitoes were counted in each section of the tunnel. The number of mosquitoes knocked down and blood fed were recorded. Blood-feeding inhibition was assessed by comparing the proportion of blood-fed females (alive or dead) in treated and control tests. Four tunnels were run simultaneously each day, with one control containing untreated netting included with all runs. Three replicates were carried out per treatment.
as §1

[3] = tested on: adult female mosquitoes; assay: Bottle assay based on CDC bottle assay; details: Table B15; rates not given
Description: Based on the “CDC bottle assay” (described at http://www.cdc.gov/malaria/resources/pdf/fsp/ir_manual/ir_cdc_bioassay_en.pdf) 1 ml of ethanol containing a test compound at a defined concentration was added to a 250 ml glass bottle and the bottles were placed on a rolling table to coat the inner surfaces as the solvent evaporated. Once dry, twenty five non-blood fed adult female mosquitoes of the appropriate species and strains (each three day old) were aspirated from the stock culture and gently blown into the exposure bottles. The lid of the bottle was replaced and the bottle placed upright out of direct sun light under standard culture conditions, nominally 28° C. and 60-80% relative humidity.
A stopwatch was started, and the assessment of the knock-down were made after 15 mins and 60 minutes. A mosquito was said to be knocked down if it was unable to stand, following the CDC definition. The bottles were replaced in an upright position when not being assessed.
After one hour the mosquitoes were carefully removed from the bottle with an aspirator and placed in a recovery cup. The mosquitoes were supplied with a 10% sucrose solution on a cotton wool bung, and stored under culture conditions. Assessments of the mortality were made after 24 hours and 48 hours (B15).
Each treatment was replicated a minimum of four times, with the mean knockdown or mortality recorded. In each study, a set of bottles was infested with a known insecticide susceptible strain of mosquitoes from the same genera as the resistant strains.

[4] = tested on: Aedes aegypti; assay: 12 well plate knockdown test; details: 1 h, read-out: Aedes aegypti 1 hour % KD; for pest or weed control at 0.2 ppm: Rate 0.2 PPM; for pest or weed control at 2 ppm: Rate 2 PPM; for pest or weed control at 20 ppm: Rate 20 PPM; for pest or weed control at 200 ppm: Rate 200 PPM
Description: (§2) The individual wells of a twelve (12) well tissue culture plates were treated with 100 μl of an ethanol solution containing a test compound at a defined concentration. Once the deposits were dry, five non-blood fed adult female Aedes aegypti or Anopheles stephensi (between two to five day old) were added to each well, and sustained with a 10% sucrose solution in a cotton wool plug. Assessment of the knockdown after 1 hour was carried out. Where multiple replicates of a treatment have been undertaken, the mean of those replicates is reported.

[5] = tested on: Anopheles stephensi; assay: 12 well plate knockdown test; details: 1 h, read-out: Anopheles stephensi 1 hour % KD; for pest or weed control at 0.2 ppm: Rate 0.2 PPM; for pest or weed control at 2 ppm: Rate 2 PPM; for pest or weed control at 20 ppm: Rate 20 PPM; for pest or weed control at 200 ppm: Rate 200 PPM
Description: as §2

SMILES | pest or weed control at 0.2 ppm [4] [%] | pest or weed control at 2 ppm [4] [%] | pest or weed control at 20 ppm [4] [%] | pest or weed control at 200 ppm [4] [%] | pest or weed control at 0.2 ppm [5] [%] | pest or weed control at 2 ppm [5] [%] | pest or weed control at 20 ppm [5] [%] | pest or weed control at 200 ppm [5] [%] | also measured
CC1(C)[C@H](C(=O)O[C@H](C#N)c2cccc(Oc3ccccc3)c2)[C@@H]1C=C(Br)Br [Deltamethrin, reference compound] | – | – | – | – | – | – | – | – | knockdown after 1 hour, Alone ([1]; Table B6, 0.03125 ppm): 20; knockdown after 1 hour, Alone ([1]; Table B6, 0.0625 ppm): 40; knockdown after 1 hour, Alone ([1]; Table B6, 0.125 ppm): 40; knockdown after 1 hour, Alone ([1]; Table B6, 0.25 ppm): 100; knockdown after 1 hour, Alone ([1]; Table B6, 0.5 ppm): 100; knockdown after 1 hour, Alone ([1]; Table B6, 1 ppm): 100; mortality at 5 mg/m2 ([2]; 24 h, Table B13, 5 mg/m2): 13%; % 1 hour KD ([2]; Table B12, 5 mg/m2): 0%; % Blood fed ([2]; Table B12, 5 mg/m2): 0%; % Through net ([2]; Table B12, 5 mg/m2): 0.93%; % Blood fed ([2]; Table B13, 5 mg/m2): 52.77%; % Through net ([2]; Table B13, 5 mg/m2): 67.6%
N#CCNC(=O)c1cnccc1C(F)(F)F [Flonicamid] | – | – | – | – | – | – | – | – | 24 hour % mort [3]: 0%; 48 hour % mort [3]: 0%; % 1 hour KD [3]: 0%
CCCN1CN=C(c2cnccc2C(F)(F)F)OC1=O [I.16] | 0 | 60 | 60 | 100 | 0 | 0 | 0 | 0 | –
C=CCONC(=O)c1cnccc1C(F)(F)F [I.17] | 0 | 0 | 0 | 0 | 0 | 0 | 20 | 100 | –
CO/N=C(\C)CNC(=O)c1cnccc1C(F)(F)F [I.18] | 40 | 100 | 100 | 100 | 0 | 0 | 0 | 40 | –
N/C(=N/C(=O)c1cnccc1C(F)(F)F)C1CC1 [I.19] | 0 | 100 | 100 | 100 | 40 | 60 | 100 | 100 | –
FC(F)(F)c1ccncc1C1=NCCN1 [I.20] | 0 | 40 | 100 | 100 | 20 | 60 | 100 | 100 | –
CSCC/C(N)=N\C(=O)c1cnccc1C(F)(F)F [I.21] | 0 | 0 | 0 | 100 | 20 | 60 | 100 | 100 | –
NC(=S)c1cnccc1C(F)(F)F [I.22] | 100 | 100 | 100 | 100 | 40 | 60 | 60 | 100 | –
CC(=O)CNC(=O)c1cnccc1C(F)(F)F [I.23] | 40 | 100 | 100 | 100 | 0 | 20 | 40 | 100 | –
CS(=O)(=O)NC(=O)c1cnccc1C(F)(F)F [I.24] | 100 | 100 | 100 | 100 | 40 | 60 | 100 | 100 | –
C[Si](C)(C)CNC(=O)c1cnccc1C(F)(F)F [I.25] | 100 | 100 | 100 | 100 | 80 | 80 | 100 | 100 | –
CC(NC(=O)c1cnccc1C(F)(F)F)C(N)=S (stereo not shown) [I.26] | 0 | 100 | 100 | 100 | 0 | 0 | 100 | 100 | –
CCNNC(=O)c1cnccc1C(F)(F)F [I.27] | 0 | 100 | 100 | 100 | 0 | 0 | 100 | 100 | –
CN(OC(=O)Oc1ccccc1)C(=O)c1cnccc1C(F)(F)F [I.28] | 20 | 40 | 60 | 100 | 0 | 0 | 40 | 100 | –
COCCOC(=O)ON(C(=O)c1cnccc1C(F)(F)F)C(C)C [I.29] | 0 | 0 | 0 | 100 | 20 | 60 | 100 | 100 | –
COC(=O)N(C(=O)N1CO[C@@]2(C(=O)OC)Cc3cc(Cl)ccc3C2=N1)c1ccc(OC(F)(F)F)cc1 [Indoxacarb] | – | – | – | – | – | – | – | – | 24 hr mort ([1]; 12.5 ppm alone): 0.0; 48 hr mort ([1]; 12.5 ppm alone): 0.0; KD ([1]; 12.5 ppm alone): 0.0; 24 hr mort ([1]; 25 ppm alone): 0.0; 48 hr mort ([1]; 25 ppm alone): 0.0; KD ([1]; 25 ppm alone): 0.0; 24 hr mort ([1]; 50 ppm alone): 0.0; 48 hr mort ([1]; 50 ppm alone): 0.0; KD ([1]; 50 ppm alone): 0.0; 24 hr mort ([1]; 100 ppm alone): 0.0; 48 hr mort ([1]; 100 ppm alone): 0.0; KD ([1]; 100 ppm alone): 0.0; knockdown after 1 hour, Alone ([1]; Table B7, 25 ppm): 0; knockdown after 1 hour, Alone ([1]; Table B7, 50 ppm): 0; knockdown after 1 hour, Alone ([1]; Table B7, 100 ppm): 0; knockdown after 1 hour, Alone ([1]; Table B7, 200 ppm): 0; % 24 hour mortality ([2]; Table B14, 20 mg/m2): 7.6%; % Blood fed ([2]; Table B14, 20 mg/m2): 31.4%
